Source: patent publication US6489470B1, “Process for the preparation of cefpodoxime proxetil diastereoisomers” (Biochemie Gesellschaft m.b.H., priority 1998, dated 2002)

Experiment: bioequivalence with a commercial form for oral administration
Format: in vivo
Details: mixture of diastereoisomers, diastereoisomeric ratio (B/A+B) of 0.5 to 0.6

Compound: COCC1=C(C(=O)OC(C)OC(=O)OC(C)C)N2C(=O)[C@@H](NC(=O)/C(=N\OC)c3csc(N)n3)C2SC1 (mixture of isomers) [cefpodoxim proxetil, 7-[2-(2-aminothiazol-4-yl)-2-(Z)-(methoxyimino)acetamido]-3-methoxymethyl-3-cephem-4-carboxylic acid-1-(isopropoxycarbonyloxy)ethyl ester]
- bioequivalence with a commercial form: bioequivalent
